Laboratory results reported in patent US20230062100A1, “SUBSTITUTED AMINOQUINOLONES AS DGKALPHA INHIBITORS FOR IMMUNE ACTIVATION” (Bayer Aktiengesellschaft, priority 2019, published 2023).

Target: DGKα (Homo sapiens, UniProt P23743)
Test: Human DGKα kinase activity inhibition assay (ADP-Glo)
Format: biochemical
Settings: in vitro human DGKα kinase activity inhibition assay
Method: Human DGKα inhibitory activity of compounds of the present invention was quantified employing the human DGKα kinase activity assay as described in the following paragraphs. In essence, the enzyme activity was measured by quantification of the adenosine-di-phosphate (ADP) generated as a co-product of the enzyme reaction via the “ADP-Glo™ Kinase Assay” kit from the company Promega. This detection system works as follows: In a first step the ATP not consumed in the kinase reaction is quantitatively converted to cAMP employing an adenylate cyclase (“ADP-Glo-reagent”), then the adenylate cyclase is stopped and the ADP generated in the kinase reaction converted to ATP, which subsequently generates in a luciferase-based reaction a glow-luminescence signal (“Kinase Detection Reagent”). C-terminally FLAG-tagged, recombinant full-length human DGKα (expressed in baculovirus infected insect cells, purified using anti-Flag pulldown and size exclusion chromatography as described below, DGKα_hu_1) was used as enzyme. As substrate for the kinase 1,2-dioleoyl-sn-glycerol, reconstituted in octyl-β-D-glucopyranoside micelles, was used. For the preparation of the micelles, 1 volume of a 16.1 mM solution of 1,2-dioleoyl-sn-glycerol (Avanti, Cat. #O8001-25G) in chloroform was slowly evaporated using a nitrogen stream. Subsequently, 22.55 volumes of a 510 mM solution of octyl-β-D-glucopyranoside (Sigma-Aldrich, Cat. #O8001-10G) in 50 mM MOPS buffer (pH 7.4) were added, and the mixture was sonicated in an ultrasonic bath for 20 s. Then 35 volumes of 50 mM MOPS buffer (pH 7.4) were added to yield a solution of 0.28 mM 1,2 dioleoyl-sn-glycerol and 200 mM octyl-β-D-glucopyranoside, which was aliquoted, flash-frozen in liquid nitrogen, and stored at −20° C. until use. For each experiment, a fresh aliquot was quickly thawed and diluted 24-fold with aqueous assay buffer (described below) containing 95.7 μM adenosine triphosphate (Promega) to yield a 1.67-fold concentrated substrate solution. For the assay 50 nl of a 100-fold concentrated solution of the test compound in dimethyl sulfoxide (DMSO, Sigma) was pipetted into either a white 1536-well or a white low-volume 384-well microtiter plate (both Greiner Bio-One, Frickenhausen, Germany). […] The concentration of DGK a was adjusted depending of the activity of the enzyme lot and was chosen appropriate to have the assay in the linear range, a typical concentration is about 0.1 nM. The reaction was stopped by the addition of 2.5 μl of “ADP-Glo-reagent” (1 to 1.5 diluted with water) and the resulting mixture was incubated at 22° C. for 1 h to convert the ATP not consumed in the kinase reaction completely to cAMP. […] The amount of emitted light was taken as a measure for the amount of ADP generated and thereby for the activity of the DGKα.

DGKα, sequence (P23743 with tags, fused parts or gaps): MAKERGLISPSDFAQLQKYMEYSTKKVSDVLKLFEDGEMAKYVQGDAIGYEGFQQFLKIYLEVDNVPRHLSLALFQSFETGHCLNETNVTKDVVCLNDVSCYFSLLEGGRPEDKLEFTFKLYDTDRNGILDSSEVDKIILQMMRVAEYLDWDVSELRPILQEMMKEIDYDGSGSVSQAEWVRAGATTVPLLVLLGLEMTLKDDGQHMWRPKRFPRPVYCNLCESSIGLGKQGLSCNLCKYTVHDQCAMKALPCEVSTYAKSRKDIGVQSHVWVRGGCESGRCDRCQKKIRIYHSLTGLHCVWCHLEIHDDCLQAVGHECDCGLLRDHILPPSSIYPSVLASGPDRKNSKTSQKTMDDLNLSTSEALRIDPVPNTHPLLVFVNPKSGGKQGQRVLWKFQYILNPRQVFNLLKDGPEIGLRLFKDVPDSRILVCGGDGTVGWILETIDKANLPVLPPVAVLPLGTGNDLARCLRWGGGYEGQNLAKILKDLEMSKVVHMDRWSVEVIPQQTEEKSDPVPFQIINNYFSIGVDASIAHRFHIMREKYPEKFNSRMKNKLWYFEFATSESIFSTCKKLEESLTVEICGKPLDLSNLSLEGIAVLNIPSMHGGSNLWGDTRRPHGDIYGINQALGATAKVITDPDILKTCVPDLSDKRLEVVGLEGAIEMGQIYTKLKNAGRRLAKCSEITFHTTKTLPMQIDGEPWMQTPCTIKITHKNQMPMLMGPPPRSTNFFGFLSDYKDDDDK

IC50 | SMILES
123 nM | Cn1c(=O)c(C#N)c(N2CCC(COc3ccccc3)CC2)c2ccccc21 [Example 118, 1-methyl-2-oxo-4-[4-(phenoxymethyl)piperidin-1-yl]-1,2-dihydroquinoline-3-carbonitrile]
2.5 nM | Cn1c(=O)c(C#N)c(N2CCC(Oc3ccc(OC(F)(F)F)cc3)CC2)c2cc(Br)ccc21 [Example 139, 6-bromo-1-methyl-2-oxo-4-{4-[4-(trifluoromethoxy)phenoxy]piperidin-1-yl}-1,2-dihydroquinoline-3-carbonitrile]
7.2 nM | Cc1ccc(COC2CCN(c3c(C#N)c(=O)n(C)c4ccccc34)CC2)cc1 [Example 107, 1-methyl-4-{4-[(4-methylphenyl)methoxy]piperidin-1-yl}-2-oxo-1,2-dihydroquinoline-3-carbonitrile]
7.7 nM | Cc1ccc2c(c1)c(N1CCC(Oc3ccc(F)cc3)CC1)c(C#N)c(=O)n2C [Example 141, 4-[4-(4-fluorophenoxy)piperidin-1-yl]-1,6-dimethyl-2-oxo-1,2-dihydroquinoline-3-carbonitrile]
14 nM | Cn1c(=O)c(C(N)=O)c(N2CCC(OCc3ccccc3F)CC2)c2ccccc21 [Example 126, 4-{4-[(2-fluorophenyl)methoxy]piperidin-1-yl}-1-methyl-2-oxo-1,2-dihydroquinoline-3-carboxamide]
119 nM | CN1CCCN(c2ccc(OC3CCN(c4c(C#N)c(=O)n(C)c5ccccc45)CC3)cc2)C1=O [Example 21, 1-methyl-4-{4-[4-(3-methyl-2-oxo-1,3-diazinan-1-yl)phenoxy]piperidin-1-yl}-2-oxo-1,2-dihydroquinoline-3-carbonitrile]
1.2 nM | Cn1c(=O)c(C(N)=O)c(N2CCC(Oc3ccc(OC(F)(F)F)cc3)CC2)c2ccc(F)cc21 [Example 99, 7-fluoro-1-methyl-2-oxo-4-{4-[4-(trifluoromethoxy)phenoxy]piperidin-1-yl}-1,2-dihydroquinoline-3-carboxamide]
30 nM | Cc1ccccc1COC1CCN(c2c(C(N)=O)c(=O)n(C)c3ccccc23)CC1 [Example 124, 1-methyl-4-{4-[(2-methylphenyl)methoxy]piperidin-1-yl}-2-oxo-1,2-dihydroquinoline-3-carboxamide]
8.3 nM | Cn1c(=O)c(C#N)c(N2CCCC(Oc3ccc(OC(F)(F)F)cc3)CC2)c2ccccc21 (racemic) [Example 100, (rac)-1-methyl-2-oxo-4-{4-[4-(trifluoromethoxy)phenoxy]azepan-1-yl}-1,2-dihydroquinoline-3-carbonitrile]
3.5 nM | COCCc1ccc2c(N3CCC(Oc4cccc(Cl)c4)CC3)c(C#N)c(=O)n(C)c2c1 [Example 74, 4-[4-(3-chlorophenoxy)piperidin-1-yl]-7-(2-methoxyethyl)-1-methyl-2-oxo-1,2-dihydroquinoline-3-carbonitrile]
18 nM | Cn1c(=O)c(C#N)c(N2CCCC(Oc3ccc(OC(F)(F)F)cc3)CC2)c2ccccc21 (single isomer, unassigned; enantiomer 2) [Example 102, 1-methyl-2-oxo-4-{4-[4-(trifluoromethoxy)phenoxy]azepan-1-yl}-1,2-dihydroquinoline-3-carbonitrile, enantiomer 2]
11 nM | Cn1c(=O)c(C#N)c(N2CCC(C)(Oc3ccc([N+](=O)[O-])cc3)CC2)c2ccccc21 [Example 40, 1-methyl-4-[4-methyl-4-(4-nitrophenoxy)piperidin-1-yl]-2-oxo-1,2-dihydroquinoline-3-carbonitrile]
4.5 nM | Cn1c(=O)c(C#N)c(N2CCC(Cc3ccccc3)CC2)c2ccccc21 [Example 91, 4-(4-benzylpiperidin-1-yl)-1-methyl-2-oxo-1,2-dihydroquinoline-3-carbonitrile]
5.3 nM | Cn1c(=O)c(C#N)c(N2CCC(OCc3ccc(F)cc3)CC2)c2ccccc21 [Example 110, 4-{4-[(4-fluorophenyl)methoxy]piperidin-1-yl}-1-methyl-2-oxo-1,2-dihydroquinoline-3-carbonitrile]
1.7 nM | COc1ccc2c(N3CCC(Sc4ccccc4)CC3)c(C#N)c(=O)n(C)c2c1 [Example 90, 7-methoxy-1-methyl-2-oxo-4-[4-(phenylsulfanyl)piperidin-1-yl]-1,2-dihydroquinoline-3-carbonitrile]
45 nM | COCCOc1ccc(OC2CCN(c3c(C#N)c(=O)n(C)c4ccccc34)CC2)cc1 [Example 44, 4-{4-[4-(2-methoxyethoxy)phenoxy]piperidin-1-yl}-1-methyl-2-oxo-1,2-dihydroquinoline-3-carbonitrile]
646 nM | Cn1c(=O)c(C#N)c(N2CCC(Oc3ccc(C(N)=O)cc3)CC2)c2ccccc21 [Example 35, 4-{[1-(3-cyano-1-methyl-2-oxo-1,2-dihydroquinolin-4-yl)piperidin-4-yl]oxy}benzamide]
1.9 nM | Cn1c(=O)c(C#N)c(N2CCC(Oc3ccc(F)cc3)CC2)c2cc(Br)ccc21 [Example 137, 6-bromo-4-[4-(4-fluorophenoxy)piperidin-1-yl]-1-methyl-2-oxo-1,2-dihydroquinoline-3-carbonitrile]
3.1 nM | Cn1c(=O)c(C(N)=O)c(N2CCC(Oc3ccc(Cl)cc3)CC2)c2ccccc21 [Example 50, 4-[4-(4-chlorophenoxy)piperidin-1-yl]-1-methyl-2-oxo-1,2-dihydroquinoline-3-carboxamide]
1130 nM | Cn1c(=O)c(C#N)c(N2CCC(Oc3cccc(OC(F)(F)F)c3)CC2)c2ccc(P(C)(C)=O)cc21 [Example 78, 7-(dimethylphosphoryl)-1-methyl-2-oxo-4-{4-[3-(trifluoromethoxy)phenoxy]piperidin-1-yl}-1,2-dihydroquinoline-3-carbonitrile]
283 nM | Cn1ccn(-c2ccc(OC3CCN(c4c(C#N)c(=O)n(C)c5ccccc45)CC3)cc2)c1=O [Example 25, 1-methyl-4-{4-[4-(3-methyl-2-oxo-2,3-dihydro-1H-imidazol-1-yl)phenoxy]piperidin-1-yl}-2-oxo-1,2-dihydroquinoline-3-carbonitrile]
6.2 nM | Cn1c(=O)c(C#N)c(N2CCC(Cc3ccc(F)cc3)CC2)c2ccccc21 [Example 92, 4-{4-[(4-fluorophenyl)methyl]piperidin-1-yl}-1-methyl-2-oxo-1,2-dihydroquinoline-3-carbonitrile]
28 nM | Cn1c(=O)c(C#N)c(N2CCC(Oc3ccc(Cl)cc3)CC2)c2ccc(N3CCCC3=O)cc21 [Example 85, 4-[4-(4-chlorophenoxy)piperidin-1-yl]-1-methyl-2-oxo-7-(2-oxopyrrolidin-1-yl)-1,2-dihydroquinoline-3-carbonitrile]
7.7 nM | Cc1cccc(OC2CCN(c3c(C#N)c(=O)n(C)c4ccc(C)cc34)CC2)c1 [Example 149, 1,6-dimethyl-4-[4-(3-methylphenoxy)piperidin-1-yl]-2-oxo-1,2-dihydroquinoline-3-carbonitrile]
7.3 nM | COc1ccc2c(N3CCC(Oc4ccc(Cl)cc4)CC3)c(C#N)c(=O)n(C)c2c1 [Example 65, 4-[4-(4-chlorophenoxy)piperidin-1-yl]-7-methoxy-1-methyl-2-oxo-1,2-dihydroquinoline-3-carbonitrile]
18 nM | Cn1c(=O)c(C#N)c(N2CCCC(Oc3ccc(Br)cc3)CC2)c2ccccc21 (racemic) [Example 103, (rac)-4-[4-(4-bromophenoxy)azepan-1-yl]-1-methyl-2-oxo-1,2-dihydroquinoline-3-carbonitrile]
3 nM | Cn1c(=O)c(C#N)c(N2CCC(Sc3ccccc3)CC2)c2cc(C#N)ccc21 [Example 144, 1-methyl-2-oxo-4-[4-(phenylsulfanyl)piperidin-1-yl]-1,2-dihydroquinoline-3,6-dicarbonitrile]
40 nM | Cn1c(=O)c(C#N)c(N2CCC(Oc3ccc(C(F)(F)F)cc3)CC2)c2ccc(C3CC3)cc21 [Example 87, 7-cyclopropyl-1-methyl-2-oxo-4-{4-[4-(trifluoromethyl)phenoxy]piperidin-1-yl}-1,2-dihydroquinoline-3-carbonitrile]
2.5 nM | Cn1c(=O)c(C#N)c(N2CCC(Oc3ccc(OC(F)(F)F)cc3)CC2)c2cccc(S(C)(=O)=O)c21 [Example 136, 8-(methanesulfonyl)-1-methyl-2-oxo-4-{4-[4-(trifluoromethoxy)phenoxy]piperidin-1-yl}-1,2-dihydroquinoline-3-carbonitrile]
